From patent publication US4163839A, “Isocoformycin and a process for the production thereof” (priority 1977, dated 1979) come the findings set out here.

As a reminder, the inhibition is the relative decrease from the control value, in per cent.

For assay [1], the system named is mouse leukemia L-1210 cells. In words: Survival period of mice implanted with L-1210 cells. The class given is in vivo. The method, then:
Each dose was injected i.p. 2 hrs. after implantation of 10^5 L-1210 cells once a day for 10 days.
"S. period" is the mean survival time in days.
"T/C" is the ratio of the mean survival time of the treated (with drug) animals versus the control's (no drug) and is expressed as a percentage.

Assay [2] relates to mouse leukemia L-1210 cells. In words: Inhibition of multiplication of L-1210 cells in tissue culture (Lowry method). The class given is cell-based. The text has this: The isocoformycin is also useful as a strong synergist of formcyin and adenine arabinoside for their antitumor activities. […] The inhibitory effect of formycin with or without isocoformycin on multiplication of the mouse leukemia L-1210 cells measured by the Lowry method [O. H. Lowry, N. J. Rosenbrough, A. L. Farr and R. J. Randall, J. Biol. Chem., 193, 265 (1951)] is directed in Table 2.

For a further assay, the system named is Escherichia coli NIHJ. In words: Disc method on nutrient agar against Escherichia coli NIHJ. The note with it: for Diameter (inhibition diameter): disc 8 mm, medium containing formycin 50 μg/ml. The class given is cell-based.
Another assay addresses Takadiastase-Y. In words: Inhibition of Takadiastase-Y deamination (decrease in optical density). The class given is biochemical. The note with it: at 45° C., 2 min, read-out: ID50 (the source's name). As for the experimental part:
(§1) The novel compound of the present invention, isocoformycin (III), is useful because of its ability to inhibit strongly the deamination of formycin, adenine arabinoside and cordycepin by the adenosine deaminase present in mammals and birds. The inhibitory activities of isocoformycin on adenosine deaminase were measured using formycin and adenosine as the substrate. Three ml of a solution of adenosine or formycin in 0.05 M phosphate buffer (12 mg/ml, pH 7.5 and 6.5, respectively) was put in a quartz cell of 1 cm in length and 0.1 ml of a solution containing a known amount of isocoformycin in distilled water was added. The reaction was started by addition of 0.1 ml of enzyme solution (adenosine deaminase from calf intestine: 1 mg/ml of 0.025 M ammonium acetate or Takadiastase-Y: 4 mg/ml of distilled water) and the decreases for 2 minutes in optical densities at 265 nm in the case of adenosine or 295 nm in the case of formycin were recorded on Beckmann spectrophotometer equipped with the Gilford recorder. The concentration of the inhibitor for 50% inhibition (ID50) was calculated from the difference of the optical densities as shown in Table 1.

The target of assay [3] is T1, adenosine deaminase from calf intestine (Bos taurus, UniProt P56658).
T1 construct: from tissue; host or cells: calf intestine
T1 sequence (P56658 1-363): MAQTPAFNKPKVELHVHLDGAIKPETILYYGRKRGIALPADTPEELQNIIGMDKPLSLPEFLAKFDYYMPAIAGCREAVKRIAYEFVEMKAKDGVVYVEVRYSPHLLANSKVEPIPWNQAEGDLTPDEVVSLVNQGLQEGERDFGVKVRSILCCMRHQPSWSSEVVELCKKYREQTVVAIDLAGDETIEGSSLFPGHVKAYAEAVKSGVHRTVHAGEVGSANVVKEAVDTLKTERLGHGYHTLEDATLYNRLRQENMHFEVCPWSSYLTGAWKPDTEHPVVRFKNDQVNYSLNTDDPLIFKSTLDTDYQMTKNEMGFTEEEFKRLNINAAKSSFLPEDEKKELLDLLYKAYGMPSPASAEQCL
In words: Inhibition of adenosine deaminase from calf intestine (decrease in optical density). The note with it: at 25° C., read-out: ID50 (the source's name). The class given is biochemical. The method, then:
as §1

Setting [4] is: formycin 50 μg/m i.p. once a day for 10 days, isocoformycin 0.
[5] abbreviates: isocoformycin 1.5 μg/m i.p. once a day for 10 days, without formycin.
Where [6] appears, read: isocoformycin 1.5 μg/m with formycin 50 μg/m, i.p. once a day for 10 days.
Where [7] appears, read: isocoformycin 3.1 μg/m i.p. once a day for 10 days, without formycin.
Where [8] appears, read: isocoformycin 3.1 μg/m with formycin 50 μg/m, i.p. once a day for 10 days.
[9] abbreviates: isocoformycin 6.2 μg/m i.p. once a day for 10 days, without formycin.
Where [10] appears, read: isocoformycin 6.2 μg/m with formycin 50 μg/m, i.p. once a day for 10 days.
[11] abbreviates: isocoformycin 12.5 μg/m i.p. once a day for 10 days, without formycin.
[12] abbreviates: isocoformycin 12.5 μg/m with formycin 50 μg/m, i.p. once a day for 10 days.
[13] abbreviates: isocoformycin 25 μg/m i.p. once a day for 10 days, without formycin.
Setting [14] is: isocoformycin 25 μg/m with formycin 50 μg/m, i.p. once a day for 10 days.
The mark [15] stands for this setting: isocoformycin 50 μg/m i.p. once a day for 10 days, without formycin.
[16] abbreviates: isocoformycin 50 μg/m with formycin 50 μg/m, i.p. once a day for 10 days.

Like-named read-outs stand apart in the source and are kept apart here.

In the case of `Nc1ncnc2c([C@@H]3O[C@H](CO)[C@@H](O)[C@H]3O)[nH]nc12` [Formycin, formycin], in assay [1] (setting [4]), the T/C % was 122% and the “s.period (mean survival time)” value stood at 10.5 days. In assay [2] (Mus musculus, L1210), the inhibition at 0.2 µg/mL was determined as 8%.

As for `OC[C@H]1O[C@@H](n2cnc3c2N=CNC(O)C3)[C@H](O)[C@@H]1O` (stereo partly drawn) [Isocoformycin, 3-β-D-ribofuranosyl-3,6,7,8-tetrahydroimidazo[4,5-d][1,3]-diazepin-7-ol], the “Diameter (inhibition diameter)” value in the assay on Escherichia coli NIHJ (isocoformycin 2.5 μg/ml) worked out at 22.0 mm; in the assay with Escherichia coli NIHJ (isocoformycin 10 μg/ml), 25.0 mm; in the assay on Escherichia coli NIHJ (isocoformycin 40 μg/ml), 32.0 mm; in the assay on Escherichia coli NIHJ (isocoformycin 200 μg/ml), 36.0 mm. For the same compound, in the assay with Escherichia coli NIHJ (without formycin, isocoformycin 2 mg/ml), the “inhibitory activity against Escherichia coli NIHJ” value is reported as “no inhibitory activity”. For the same compound, the IC50 was 1100 nM at Takadiastase-Y (substrate adenosine, pH 7.5); 2000 nM on Takadiastase-Y (substrate formycin, pH 6.5); 86 nM in assay [3] (substrate adenosine, pH 7.5); 35 nM in assay [3] (substrate formycin, pH 6.5). The “prolongation in the survival period” value in assay [1] (formycin combined with isocoformycin intraperitoneally) is reported as “marked prolongation”. In addition, the T/C % is listed as 93% in assay [1] (setting [5]); 145% in assay [1] (setting [6]); 105% in assay [1] (setting [7]); 163% in assay [1] (setting [8]); 99% in assay [1] (setting [9]); 140% in assay [1] (setting [10]). Moreover, the T/C % in assay [1] (setting [11]) is given as 116%; in assay [1] (setting [12]), 163%; in assay [1] (setting [13]), 93%; in assay [1] (setting [14]) it was 174%; in assay [1] (setting [15]), 93%; in assay [1] (setting [16]), 174%. Also, the “s.period (mean survival time)” value in assay [1] (setting [5]) came to 8.0 days; in assay [1] (setting [6]), 12.5 days; in assay [1] (setting [7]), 9.0 days; in assay [1] (setting [8]), 14.0 days; in assay [1] (setting [9]), 9.0 days; in assay [1] (setting [10]), 12.0 days. Further, the “s.period (mean survival time)” value in assay [1] (setting [11]) turned out to be 8.5 days; in assay [1] (setting [12]) it was 14.0 days; in assay [1] (setting [13]) it was 10.0 days; in assay [1] (setting [14]), 15.0 days; in assay [1] (setting [15]) it was 8.0 days; in assay [1] (setting [16]) it was 15.0 days. Besides, the inhibition at 0.2 µg/mL in assay [2] (Mus musculus, L1210, isocoformycin 0.20 μg/ml, formycin 0.0, read-out: Inhibition (%)) is 0%. For the same compound, the inhibition at 0.5 µg/mL in assay [2] (Mus musculus, L1210, isocoformycin 0.50 μg/ml, formycin 0.0) is -4%. Also, the “Inhibition (%)” value in assay [2] (isocoformycin 0.20 μg/ml with formycin 0.20 μg/ml) worked out at 42%; in assay [2] (isocoformycin 0.50 μg/ml with formycin 0.20 μg/ml) it was 55%. Also, the “synergistic effect with formycin in the inhibition of cell multiplication” value in assay [2] (tissue cultures, with formycin) is recorded as “strong synergistic effect”.

As for `OCC1NC=Nc2c1ncn2[C@@H]1O[C@H](CO)[C@@H](O)[C@H]1O` (stereo partly drawn) [9-β-D-ribofuranosyl-6-hydroxymethyl-1,6-dihydropurine, reference compound], the IC50 at Takadiastase-Y (substrate adenosine, pH 7.5) amounted to 280000 nM; on Takadiastase-Y (substrate formycin, pH 6.5), 200000 nM; in assay [3] (substrate adenosine, pH 7.5) it was 5800 nM; in assay [3] (substrate formycin, pH 6.5), 2600 nM.
